Laboratory results reported in article PMC11148078, “Potent activity of polymyxin B is associated with long-lived super-stoichiometric accumulation mediated by weak-affinity binding to lipid A” (Nature Communications, 2024).
Entries after “also recorded” stand apart in the source; their conditions may differ. Bridge positions count the residues as written; N and C are the ends. Square brackets hold non-standard residues; d marks the D form. Peptide text beside a SMILES is read from it. * marks the point of attachment. ξ: configuration not given here. Hexanoyl(4ξ-Me) = CCC(C)CCC(=O)*; dOrn = NCCC[C@@H](N)C(=O)O; Orn = NCCC[C@H](N)C(=O)O

Tests used:
wt-OMVs [1] = test: Single-cycle kinetic SPR binding to immobilized wt-OMVs; set-up: species or system E. coli; conditions: serial doubling injections, C1 chip
Experimental: (§1) Polymyxin B was covalently attached to a C1 chip (Series S Sensor Chip C1, Cytiva) using an amine coupling kit (Cytiva). Cartoon in Fig. 1A created with BioRender (biorender.com). Briefly, equal amounts of reagents N-hydroxysuccinimide and 1-ethyl-3-(3-dimethylaminopropyl) carbodiimide hydrochloride were mixed as per manufacturer’s instructions and immediately added to the gold chip surface for 2 min, washed with distilled deionized water, and dried. Sufficient polymyxin B (1 mM in 1 M HEPES buffer, pH 8) was added to cover the chip surface, incubated at room temperature for 1 h, washed as before, and then incubated with 1 M ethanolamine hydrochloride-NaOH, pH 8.5, for 1 min. The chip surface was washed with water, dried as previously described, immediately loaded into a Biacore S200, and primed with running buffer (described below) to equilibrate the system. C1 chips were used for multiple runs and discarded upon removal from the Biacore S200.
(§2) SCK C1-chip SPR experiments were performed in running buffer (Dulbecco’s phosphate-buffered salt solution 1x without calcium or magnesium (Fisher Scientific), pH 7.4, with 0.0005% tween-80 (Sigma) passed through a 0.2 µm filter) unless otherwise indicated. Inclusion of tween-80 prevented loss of polymyxin to the plastics[34] (also see Supplementary Information Methods). For experiments with brevicidine, which was suspended in DMSO, 0.125% DMSO was included in the running buffer. OMVs were diluted from frozen stocks to approximately 20–30 µg/ml protein in the OMV buffer. Capture of OMVs was performed at a low flow rate ([…]) for 300 s over the test channel(s) followed by a 300 s stabilization period. All subsequent steps were at a flow rate of […]. For single cycle kinetics, two-fold dilutions were injected over the channel(s) loaded with OMVs and a reference channel without OMVs for 30 s contact and 480 s dissociation. To regenerate chips, 0.5% SDS (desorb 1, Cytiva) was injected into all channels for 60 s at 30 µl/ml twice, with an extra buffer wash and four carry-over control steps to prevent residual SDS from disrupting the following cycle.
All single-cycle kinetic SPR traces shown were double-referenced (unless indicated) within the Biacore S200 Evaluation Software 1.0, exported as a.txt file, and imported (decimated) into GraphPad Prism (version 9.3.1 for Mac, GraphPad Software, San Diego, CA). For clarity, in some cases individual outlier data points (at buffer transitions) were removed when this would not change the overall data or conclusions.

wt-OMVs [2] = test: SPR chaser analysis (residence time), wt-OMVs; assay type: binding, E. coli; conditions: 25 °C, n≥3, (SD)
Experimental: (§3) The off-rate of the tightly bound fraction was estimated using a chaser analysis, where OMVs were pre-saturated with polymyxin B and then re-saturated after an extended time interval (Supplementary Information Fig. S11A). […] A t1/2 of >6 h was determined for polymyxin B binding to OMVs at both 25 and 37 °C (SI Table S3). The t1/2 of brevicidine, also measured by chaser analysis, was approximately 1 h on both wt-OMVs and polymyxin-resistant-OMVs (SI Table S3).
(§4) Binding and kinetic analysis of SPR-OMV assays […]
To determine the residence time of the test compound with OMVs, the ‘chaser method’ was used because it accounts for drift that can occur in the system over long incubation times 13. OMVs were loaded onto the chip as described above then 5 µM polymyxin B was injected using the ‘low-sample consumption’ setting for 300 sec ([…] flow rate), followed by a 240 sec dissociation time. A second dose of 5 µM polymyxin B was then injected for 60 sec ([…]) to assure saturation followed by a 2 h dissociation time prior to the ‘chaser’, a 60 sec pulse of 5 µM polymyxin B. The RUs of associated polymyxin B were determined 120 sec after the start of the dissociation. The change in RUs from before dosing to after the second dose, and the change in RUs from prior to the ‘chaser’ dose and 120 sec after the start of its dissociation were used to calculate the fraction occupancy of the material and the residence time/half-life as described 13. […]
PMBN) to LPS for 20 min. […]
20 sec with a Solarus plasma cleaner (Gatan). Grids were blotted and plunge-frozen by Vitrobot (ThermoFisher Scientific, Waltham, MA) at 4°C, 100% relative humidity, blot force 7, and a 3 sec […]
TEM data collection was performed using a Titan Krios G3i (ThermoFisher Scientific, Waltham, MA) operating at 300 kV equipped with a BioQuantum energy filter and a K3 Summit direct electron detector operating at a nominal magnification of 105,000x (0.838 Å/pixel), an energy slit width of 20 eV, defocus range -1 to -3 μm, 3-sec exposure time, 60 frames per movie, a total electron fluence of ~64 e/Å2. Microscope and camera automation was accomplished by SerialEM14, and image processing (motion correction & CTF estimation) was performed using […]
(§5) Standard cryo-EM image processing software and methods were incompatible with the vesicle images, so a blinded visual scoring method for image analysis was used. Approximately 50 images from each sample and treatment condition that each contained at least one OMV (pooled in a single folder and blinded) were scored for number of vesicles touching (0-10+), and if the vesicle membranes appeared disrupted or abnormal. Sampling was not completely random as images of vesicles could not be obtained from areas with significant clumping. Images shown in […]

[3] = test system: resistant-OMVs (E. coli PmrA^G53E); test: Single-cycle kinetic SPR binding to immobilized resistant-OMVs; conditions: serial doubling injections, C1 chip
Experimental: as §1
as §2, with “To regenerate chips, 0.5% SDS (desorb 1, Cytiva) was injected into all channels for 60 s at 30 µl/ml twice, with an extra buffer wash and four carry-over control steps to prevent residual SDS from disrupting the following cycle.” left out

S. aureus WT = assay type: cell-based; conditions: LB + 0.0005% tween-80, overnight 37 °C
Experimental: (§6) Bacterial strains and plasmids are listed in SI Table S5. LB growth media was prepared according to manufacturer’s instructions and supplemented with 0.2% arabinose and carbenicillin (50 μg/mL) for the strains containing pBAD24-mcr1 plasmid. Cultures were started by inoculating 3 ml LB with 1–2 colonies from fresh overnight plates and grown at 37 °C until in log phase. Modified minimal inhibitory concentration (MIC) assays were performed in 96-well round bottom polystyrene plates (Corning) with a final volume of 100 µl in LB supplemented with tween-80 at 0.0005%. […] Polymyxin B sulfate (TCI Co. Ltd), polymyxin B nonapeptide (PMBN) (Sigma), and brevicidine (Genentech) were diluted directly in the assay plates. Bacteria were diluted in LB with tween-80 0.0005% and added to a final OD600 of 0.0005. Growth was measured via OD600 on a SpectraMax M5 plate reader after overnight static growth at 37 °C with humidity.

E. coli mcr1 = assay type: cell-based; conditions: pBAD-mcr-1
Experimental: as §6

E. coli PmrA^G53E = assay type: cell-based
Experimental: as §6

[4] = test system: E. coli PmrA^G53E+rifampicin; test: Rifampicin potentiation / outer membrane permeability, E. coli PmrA^G53E; assay type: cell-based
Experimental: as §6

E. coli WT+rifampicin = test: Rifampicin potentiation / outer membrane permeability, wild-type E. coli; assay type: cell-based; conditions: rifampicin 1.56 µM; LB + 0.0005% tween-80, overnight 37 °C
Experimental: as §6

E. coli mcr-1+rifampicin = test: Rifampicin potentiation / outer membrane permeability, E. coli mcr-1; assay type: cell-based
Experimental: as §6

resistant-OMVs = test: SPR chaser analysis (residence time), resistant-OMVs; assay type: binding, E. coli
Experimental: as §3, §4
To determine the residence time of the test compound with OMVs, the ‘chaser method’ was used because it accounts for drift that can occur in the system over long incubation times 13. […] A second dose of 5 µM polymyxin B was then injected for 60 sec ([…]) to assure saturation followed by a 2 h dissociation time prior to the ‘chaser’, a 60 sec pulse of 5 µM polymyxin B. The RUs of associated polymyxin B were determined 120 sec after the start of the dissociation. […]
as §5, with “abnormal.” for “abnormal. Sampling was not completely random as images of vesicles could not be obtained from areas with significant clumping. Images shown in”

Q: Which “SPR binding profile” value (wt-OMVs [1]) does the source give for Colistin here?
A: Its value is “dominated by the accumulation of tightly bound polymyxin B and a superimposed saw-tooth profile associated with transient binding”.

Q: How did the t1/2 (wt-OMVs [2]) turn out when `CCC(C)CCC(=O)N[C@H](CC(N)=O)C(=O)N[C@H](Cc1ccc(O)cc1)C(=O)N[C@H](Cc1c[nH]c2ccccc12)C(=O)N[C@H](CCCN)C(=O)N[C@@H](CCCN)C(=O)NCC(=O)N[C@H](CCCN)C(=O)N[C@@H](Cc1c[nH]c2ccccc12)C(=O)N[C@@H]1C(=O)N[C@@H]([C@@H](C)CC)C(=O)NCC(=O)N[C@@H](CO)C(=O)O[C@@H]1C` (stereo partly drawn) [Brevicidine] ({Hexanoyl(4ξ-Me)}-[dN][dY][dW][dOrn][Orn]G[dOrn]WTIGS; ester 9-C; N-terminus assumed) was run?
A: Its t1/2 is 1.09 (0.20) h.

Q: And the “SPR binding profile” value [3]?
A: The value was “indistinguishable from its binding to wt-OMVs; also recorded: identical response to wt-OMVs and resistant-OMVs”.

Q: And the MIC (S. aureus WT)?
A: The MIC was over 40 µM.

Q: What about the “antibacterial activity” value (E. coli mcr1) of the same compound?
A: The value was “exhibits antibacterial activity against strains with polymyxin-resistant lipid A modifications”.

Q: What about the “antibacterial activity” value (E. coli PmrA^G53E) of the same compound?
A: The value was “exhibits antibacterial activity against strains with polymyxin-resistant lipid A modifications”.

Q: And the “MIC in presence of rifampicin” value [4]?
A: Its value is 0.078 µM.

Q: And the “MIC in presence of rifampicin” value (E. coli WT+rifampicin)?
A: The value was 0.078 µM.

Q: What about the “SPR binding profile” value (wt-OMVs [1]) of the same compound?
A: Its value is “accumulation of a tightly bound species and a superimposed saw-tooth profile”.

Q: What about the “MIC in presence of rifampicin” value (E. coli mcr-1+rifampicin) of the same compound?
A: Its value is 0.078 µM.

Q: And the t1/2 (resistant-OMVs; 25 °C, OMVs from PmrA^G53E and pmcr1 strains (n=2 each), (SD))?
A: The t1/2 was 1.17 (0.57) h.

Q: And the “t1/2 of bound complex” value (resistant-OMVs; polymyxin-resistant-OMVs)?
A: Its value is “approximately 1 h”.
